Results on one compound are retold here after patent publication US12742284B2, “Antimicrobial polymer coatings on textiles” (MICROBAN PRODUCTS COMPANY, priority 2022, dated 2023).

For this assay, the system named is Kp. Description: AATCC TM 100 antimicrobial test on treated polyester after home launderings. Conditions: for AATCC TM 100, Antimicrobial Test result (Kp - log reduction): 1.5% o.w.f. on polyester.

In the case of `[Na+].[O-][n+]1ccccc1[S-]` [Sodium Pyrithione], the “AATCC TM 100, Antimicrobial Test result (Kp - log reduction)” value (1 HL) is listed as 0.5 log reduction and the “AATCC TM 100, Antimicrobial Test result (Kp - log reduction)” value (25 HL) is 0 log reduction. Also, the “antimicrobial performance (in words)” value was “little efficacy” (after one cycle of home laundering) and “did not have antimicrobial performance” (after twenty-five home launderings).
